Several values for one entry are separate records, joined by “and”; a condition that tells them apart may be missing. Equal entries are not always repeated. Marks after values point to notes of the source that are not given here.
Key:
[1] = tested on: GlcCer synthase of MDCK cell homogenates; experiment: Inhibition of ceramide glucosyltransferase (GlcCer synthase) of MDCK cell homogenates; type: biochemical, canine; conditions: for Inhibition at 5 μM: 5 μM inhibitor, triplicate ± SD, samples partly isomer mixtures
Method in brief: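 MDCK cell sonicate (~0.2 mg protein) incubated with octanoyl sphingosine (85 μg, in dioleoylphosphatidylcholine/sulfatide liposomes) and UDP-[^3H]glucose in a thermostatted ultrasonic bath. Aromatic inhibitors were dried into the tube; aliphatic inhibitors were incorporated in the substrate liposomes.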

[2] = tested on: 9L brain gliosarcoma cells; experiment: Tumor cell growth in vitro (sulforhodamine B), 9L; type: cell-based; conditions: for IC50: 9L, rounded off to one digit, read-out: Inhibition of tumor cell growth in vitro, IC50; for growth, % of control growth: 9L cells
Method in brief: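 Cells in RPMI 1640 + 5% FBS, plated 1000/well (H-460, 9L) or 2000/well (MCF-7); compounds added day 1 from 2 mM BSA stocks diluted 500-fold in medium. Growth read by sulforhodamine B staining, A520, at day 5 (H-460, 9L) or day 6 (MCF-7), as percent of control.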

MDCK cells [3] = experiment: MDCK cell growth (cellular protein per dish); type: cell-based, canine; conditions: duplicate dishes
Method: For the experiments with labeled thymidine, each 8.5 cm dish contained 500,000 Madin-Darby canine kidney (MDCK) cells in 8 ml of Dulbecco modified essential supplemented medium. […] The control cells were also incubated in the presence of BSA. The cells were washed with phosphate/saline and trichloroacetic acid, then scraped off the dishes, dissolved in alkali, and analyzed for protein and DNA incorporated tritium. [Methyl-^3H]thymidine (10 μCi) was added 4 h prior to harvesting.

acid ceramidase = experiment: Acid ceramidase of MDCK cell homogenate; type: biochemical, canine
Method: (§1) Acid and neutral ceramidases were assayed under conditions like those above, but the medium contained 110 μM [1-^14C]decanoyl sphingosine (10^5 cpm) in 340 μM dioleoylphosphatidylcholine liposomes and 0.34 mg of MDCK cellular protein homogenate. […] After 60 min in the ultrasonic bath, 3 ml of C-M 2:1, carrier decanoic acid, and 0.6 ml of 0.9% saline were added and the lipids in the lower layer were separated by TLC with C-HOAc 9:1. The liberated decanoic acid was scraped off the glass plate and counted.

neutral ceramidase = experiment: Neutral ceramidase of MDCK cell homogenate; type: biochemical, canine
Method: as §1

Acid SMase = experiment: Acid sphingomyelinase of MDCK cells; type: biochemical, canine
Method: Acid and neutral SMase assays were based on the procedures of Gatt et al. (Gatt, S. et al., “Assay of Enzymes of Lipid Metabolism With Colored and Fluorescent Derivatives of Natural Lipids,” Meth. Enzymol., 72:351-375 (1981)), using liposomes containing NBD-SM dispersed like the labeled ceramide (10 μM substrate and 30 μM lecithin). The assay medium for the neutral enzyme also contained 50 mM Tris-Cl^− (pH 7.4), 25 mM KCl, 5 mM MgCl2 and 0.29 mg of MDCK cell protein in a total volume of 0.25 ml. Incubation was at 37° C. for 30 min in the ultrasonic bath, then the fluorescent product, NBD-ceramide, was isolated by partitioning the assay mixture with 0.45 ml 2-propanol, 1.5 ml heptane, and 0.2 ml water. After centrifugation, a trace of contaminating NBD-SM was removed from 0.9 ml of the upper layer by washing with 0.35 ml water. The upper layer was analyzed with a fluorometer (460 nm excitation, 515 nm emission).
[…] The resultant ceramide was determined as above.

MDCK cells [4] = experiment: Lipid changes in MDCK cells (GlcCer, ceramide, diacylglycerol); type: cell-based, canine; conditions: 24 h

| IC50 [2] [µM] | Compound | Inhibition at 5 μM [1] [%] | Protein (MDCK cells [3]; 0.4 μM in growth medium) | Protein (MDCK cells [3]; 4 μM in growth medium) | Ceramidase pH 4.5, enzyme activity (% of control) (acid ceramidase; 5 μM) | Ceramidase pH 4.5, enzyme activity (% of control) (acid ceramidase; 50 μM) | Ceramidase pH 7.4, enzyme activity (% of control) (neutral ceramidase; 5 μM) | Ceramidase pH 7.4, enzyme activity (% of control) (neutral ceramidase; 50 μM) | Sphingomyelinase pH 4.5, enzyme activity (% of control) (Acid SMase; 5 μM) | Sphingomyelinase pH 4.5, enzyme activity (% of control) (Acid SMase; 50 μM) | ceramide concentration, TLC densitometry, compared with BML-130 (MDCK cells [4]; various concentrations) | degree of inhibition of GlcCer synthase ([1]; 6 μM, inhibitor incorporated into the substrate liposomes) [%] | growth, % of control growth ([2]; 2 μM inhibitor) [%] | growth, % of control growth ([2]; 3 μM inhibitor) [%] | ceramide concentration, TLC densitometry (MDCK cells [4]; 0.5 μM) [nmol/mg protein] | ceramide concentration, TLC densitometry (MDCK cells [4]; 1 μM) [nmol/mg protein] | ceramide concentration, TLC densitometry (MDCK cells [4]; 2 μM) [nmol/mg protein] | ceramide concentration, TLC densitometry (MDCK cells [4]; 4 μM) [nmol/mg protein] |
| --- | --- | --- | --- | --- | --- | --- | --- | --- | --- | --- | --- | --- | --- | --- | --- | --- | --- | --- |
| 2 | CCCCCCCCCCCCCCCC(=O)NC(CN1CCCC1)C(O)c1ccccc1 (racemic) [BML-129] | 15 | 538 μg/dish and 500 μg/dish | 396 μg/dish and 311 μg/dish | 108 ± 8 % of control | 171 ± 26^a % of control | 100 ± 0 % of control | 99 ± 2 % of control | 108 ± 4 % of control | 97 ± 3 % of control | virtually identical |  |  |  |  |  |  |  |
| 2 | CCCCCCCCCCCCCCCC(=O)NC(CN1CCCC1)C(O)c1ccccc1 (racemic) [BML-130] | 79 | 544 μg/dish and 538 μg/dish | 160 μg/dish and 268 μg/dish | 107 ± 11 % of control | 160 ± 21^a % of control | 100 ± 15 % of control | 100 ± 15 % of control | 109 ± 1 % of control | 114 ± 2 % of control |  | 89±0.6 | 93 | 5 | 1.0 | 1.1 | 1.5 | 3.3 |

Source: patent publication US6916802B2, “Amino ceramide-like compounds and therapeutic methods of use” (Genzyme Corporation, priority 2002, dated 2005)
